In patent publication US7799797B2, “Arylsulfonyl naphthalene derivatives and uses thereof” (Roche Palo Alto LLC, priority 2006, dated 2010):

Tests used:
[1] = target: T1, recombinant human 5-HT6 receptor (Homo sapiens, UniProt P50406); assay: Radioligand binding, [3H]LSD competition in HEK293 cell membranes; conditions: [3H]LSD displacement, pH 7.4, 37° C., read-out: pKi for 5-HT6 (converted)
T1 construct: expressed in transfected cells
Description: (§1) The binding activity of compounds of this invention in vitro was determined as follows. Duplicate determinations of 5-HT6 ligand affinity were made by competing for binding of [^3H]LSD in cell membranes derived from HEK293 cells stably expressing recombinant human 5-HT6 receptor. Duplicate determinations of 5-HT2A ligand affinity were made by competing for binding of [^3H]Ketanserin (3-(2-(4-(4-fluorobenzoyl)piperidinol)ethyl)-2,4(1H, 3H)-quinazolinedione) in cell membranes derived from CHO-K1 cells stably expressing recombinant human 5-HT2A receptor. Membranes were prepared from HEK 293 cell lines by the method described by Monsma et al., Molecular Pharmacology, Vol. 43 pp. 320-327 (1993), and from CHO-K1 cell lines as described by Bonhaus et al., Br J. Pharmacol. June; 115(4):622-8 (1995).
(§2) For estimation of affinity at the 5-HT6 receptor, all determinations were made in assay buffer containing 50 mM Tris-HCl, 10 mM MgSO4, 0.5 mM EDTA, 1 mM ascorbic acid, pH 7.4 at 37° C., in a 250 microliter reaction volume. […]
(§3) Assay tubes containing [^3H] […] LSD or [^3H]Ketanserin were determined as radioactive counts per minute using Packard TopCount.
(§4) Displacement of [^3H]LSD or [^3H]Ketanserin from the binding sites was quantified by fitting concentration-binding data to a 4-parameter logistic equation: […]

[2] = target: T2, recombinant human 5-HT2A receptor (Homo sapiens, UniProt P28223); assay: Radioligand binding, [3H]Ketanserin competition in CHO-K1 cell membranes; conditions: [3H]Ketanserin displacement, pH 7.4, 32° C., read-out: pKi for 5-HT2A (converted)
T2 construct: expressed in transfected cells
T2 sequence (P28223 whole entry): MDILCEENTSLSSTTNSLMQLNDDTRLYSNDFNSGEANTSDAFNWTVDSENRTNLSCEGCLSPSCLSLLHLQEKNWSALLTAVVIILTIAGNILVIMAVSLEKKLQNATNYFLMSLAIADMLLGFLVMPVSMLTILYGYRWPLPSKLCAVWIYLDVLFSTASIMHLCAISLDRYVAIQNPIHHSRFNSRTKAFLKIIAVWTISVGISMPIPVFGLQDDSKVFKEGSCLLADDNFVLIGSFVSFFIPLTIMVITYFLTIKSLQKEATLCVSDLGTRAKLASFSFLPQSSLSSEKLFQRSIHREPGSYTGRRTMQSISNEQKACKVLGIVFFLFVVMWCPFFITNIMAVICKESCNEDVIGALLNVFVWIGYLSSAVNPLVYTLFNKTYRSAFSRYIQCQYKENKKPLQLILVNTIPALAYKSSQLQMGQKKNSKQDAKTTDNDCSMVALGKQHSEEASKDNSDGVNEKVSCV
Description: as §1, §2, §3, §4

T1 sequence (P50406 whole entry): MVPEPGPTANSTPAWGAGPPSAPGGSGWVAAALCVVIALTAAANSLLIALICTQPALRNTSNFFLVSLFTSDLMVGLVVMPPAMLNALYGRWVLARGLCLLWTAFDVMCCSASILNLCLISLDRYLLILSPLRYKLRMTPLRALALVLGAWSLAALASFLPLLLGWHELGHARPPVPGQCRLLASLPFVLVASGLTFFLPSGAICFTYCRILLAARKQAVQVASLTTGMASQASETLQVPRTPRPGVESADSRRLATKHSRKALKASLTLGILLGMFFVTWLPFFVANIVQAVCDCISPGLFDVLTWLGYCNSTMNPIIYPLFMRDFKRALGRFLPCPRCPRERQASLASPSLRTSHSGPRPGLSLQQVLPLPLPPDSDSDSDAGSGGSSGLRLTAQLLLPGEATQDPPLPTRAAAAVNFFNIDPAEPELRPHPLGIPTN

Ki [1] [nM]	Ki [2] [nM]	SMILES
~0.447		CNCc1cccc2cc(S(=O)(=O)c3ccccc3)ccc12 [Compound 1, (6-Benzenesulfonyl-naphthalen-1-ylmethyl)-methyl-amine]
	~5.01	NCc1cccc2cc(S(=O)(=O)c3cccc(F)c3)ccc12 [Compound 2, C-[6-(3-Fluoro-benzenesulfonyl)-naphthalen-1-yl]-methylamine]
